Here are results for 5 compounds from article PMC6434189, “Peperomin E and its orally bioavailable analog induce oxidative stress-mediated apoptosis of acute myeloid leukemia progenitor cells by targeting thioredoxin reductase” (Redox Biology, 2019).

Entries after “also recorded” stand apart in the source; their conditions may differ.

The test system of one data set is TrxR1. As to conditions: read-out: TrxR1 inhibition IC50; cited from earlier work.
The target in the next data set is T1, Sec residue in TrxR1 (Homo sapiens, UniProt Q16881).
T1 construct: purchased Abcam ab204206
T1 sequence (Q16881 1-499 isoform Q16881-5): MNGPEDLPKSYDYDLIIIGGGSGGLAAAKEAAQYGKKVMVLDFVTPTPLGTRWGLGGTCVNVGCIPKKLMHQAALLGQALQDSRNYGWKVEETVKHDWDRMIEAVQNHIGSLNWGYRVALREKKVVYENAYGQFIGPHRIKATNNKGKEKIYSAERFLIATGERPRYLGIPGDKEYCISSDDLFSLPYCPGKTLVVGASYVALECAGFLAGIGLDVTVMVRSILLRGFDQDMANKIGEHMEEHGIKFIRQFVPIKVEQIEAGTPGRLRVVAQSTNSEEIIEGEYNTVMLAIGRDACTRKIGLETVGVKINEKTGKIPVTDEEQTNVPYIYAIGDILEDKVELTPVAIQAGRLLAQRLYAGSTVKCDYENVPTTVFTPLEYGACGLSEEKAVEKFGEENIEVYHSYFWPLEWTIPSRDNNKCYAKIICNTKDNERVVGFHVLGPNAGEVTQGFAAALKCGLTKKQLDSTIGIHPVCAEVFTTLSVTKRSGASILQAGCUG
The experiment in a line: BIAM labeling assay. As to conditions: pH 6.5; PepE 1, 5, 10 μM; DNCB 5 μM. Format: biochemical. The procedure: To further assess whether the Sec residue in TrxR1 was the modified site of PepE. The BIAM labeling assay was performed according to previous report. Briefly, 100 μM BIAM stock solution in 100 mM Tris-HCl, 1 mM EDTA buffer (pH = 6.5) was freshly prepared before each test. The TrxR1 protein (1 μM) was incubated with different concentrations (1, 5, 10 μM) of PepE or 5 μM of DNCB (positive control) and DMSO (negative control) in 50 mM Tris-HCl, 1 mM EDTA buffer (pH = 7.5) and 400 μM NADPH at 37 °C. After incubation, 4 μL of the reaction mixture was withdrawn and added mixed with 20 μM of BIAM solution in 100 mM Tris-HCl, 1 mM EDTA assay buffer (pH = 6.5) for 30 min at 37 °C to allow selective alkylation of free Sec residues. The reaction was stopped by adding the IAA solution (final concentration 50 mM). The samples were then denatured in SDS buffer, boiled and subjected to SDS-PAGE and western-blotting on a 7.5% gel, and the separated proteins were transferred to nitrocellulose membrane. The enzymes labeled with BIAM were detected with HRP-conjugated streptavidin and enhanced chemiluminescence detection. The bands were analyzed using Gel-pro 32 software.

The target of another data set is T2, NADPH-reduced TrxR1 (Homo sapiens, UniProt Q16881).
T2 construct: purchased Abcam ab204206
T2 sequence (Q16881 1-499 isoform Q16881-5): T1 sequence (Q16881 1-499 isoform Q16881-5)
The experiment in a line: Bio-layer interferometry (BLI) binding assay, TrxR1. To be noted: NADPH-reduced TrxR1 0.9 μM, 25 °C. Here is the method:
The binding kinetics of PepE or PepA to purified recombinant proteins were determined using BLI on an Octet RED 96 system (ForteBio, Shanghai, China) following the manufacturer's protocol. All interaction analyses were performed at 25 °C in PBS with 0.2% DMSO. Purified recombinant proteins (0.9 μM, the TrxR1 full length and TrxR1 protein fragment were pre-reduced by 400 μM of NADPH before test) were pre-labeled with biotin using […] (Abcam) following the manufacturer's instruction. Loading of the Dip and Read Super Streptavidin (SSA) Biosensors (ForteBio) were conducted by exposing biotinylated proteins to biosensor tips for 2 h. The 96-well microplates used in the Octet were filled with 200 μL sample or buffer per well and agitated at 1000 rpm. The loaded biosensors were washed in buffer for 600 s and transferred to wells containing PepE at concentrations of 0.625, 1.25, 2.5, 5, and 10 μM or PepA at concentrations of 1.25, 2.5, 5, 10 and 20 μM, respectively, in the buffer. […] Reference measurements were conducted using the buffer instead of PepE (or PepA). A parallel set of SA unloaded biosensors was prepared to act as a control. The sample-sensorgrams were corrected by subtracting the double reference curve. Kinetic parameters (Kon and Kdis) and affinity (KD) were determined from a global fit to a 1:1 binding model of the data between proteins and PepE using Octet software (ForteBio).

In the next data set the test system is primary CD34+ AML cells. Briefly: CCK-8 cell viability assay on primary CD34+ AML cells. Format: cell-based, human. As to conditions: 48 h, CCK-8. The procedure:
(§1) The mononuclear cells were further enriched for CD34 positive cells using the MACS CD34 MicroBead kit following the manufacturer's protocol. Enriched CD34 cell-purity was measured by flow cytometry-based quantification of cells stained using an anti-CD34-FITC antigen. Isolated CD34^+ cells were pre-incubated in the IMDM-based serum-free media for 1 h before the addition of drugs. PepE was dissolved in DMSO to make a 100 mM stock solution and stored in aliquots at – 20 °C. The 100 mM stock solution was diluted with DMSO to 10 mM and then diluted with PBS to 1 mM before treating the cells at the indicated concentrations. DMAPE and Ara-C were diluted in PBS to 1 mM concentration before use.
(§2) Unless otherwise mentioned, 2 × 10^4 cells were seeded at 96-well plates (Corning, New York, USA) in the IMDM-based serum-free media for 1 h. Then, the cells were incubated with different concentrations of PepE and DMAPE at 37 °C in a 5% CO2 incubator for 48 h. At the end of the treatment, 10 μL CCK-8 solution was added to each well and incubated for an additional 2 h at 37 °C, and the absorbance at 450 nm was measured with a microplate reader (Thermo Scientific, Multiskan GO, Finland). Inhibition ratio (%) was calculated as [(absorbance of control − absorbance of the test sample)/absorbance of control] x 100%.
On the technique in general: Tetrazolium assays rely on reduction of a dye to a coloured formazan, in cell work by metabolically active cells.

The test system of data set [1] is CD34+ NBM cells and hBMSCs. The experiment in a line: CCK-8 cell viability assay on normal CD34+ NBM cells and hBMSCs. Format: cell-based, human. As to conditions: 48 h, CCK-8. The procedure:
as §1, §2

The next data set relates to KG-1a CD34+ cells. The experiment in a line: KG-1a-Luc CD34+ xenograft in NOD/SCID mice, bioluminescence. Format: in vivo. To be noted: 50 mg/kg i.g. daily, 5 weeks. The procedure: Six-week-old female NOD-SCID mice (obtained from the model animal research center of Nanjing University, Nanjing, China) were acclimated for 1 week and housed in groups of five. All animal studies were conducted under the guidelines approved by the Animal Care and Use Committee of the Nanjing University of Chinese Medicine (Nanjing, China). The mice were sublethally irradiated with 2.7 Gy before transplantation.
KG-1a cells tagged with a luciferase reporter gene (KG-1a-Luc) were obtained from Cobioer biotechnology Inc. (Nanjing, Jiangsu, China) and cultured in 90% IMDM supplemented with 10% FBS, 0.05 mM 2-Mercaptoethanol, and 1 μg/mL Puromycin, and grown at 37 °C in a 5% CO2 humidified incubator. CD34 positive cells were enriched (following the 2.3 method) and injected via the tail vein in a final volume of 0.2 mL PBS with 0.5% FBS. For analyzing the luciferase signal, 5 × 10^6 cells KG-1a-Luc cells were used for each recipient animal. Seven days after transplantation, mice with KG-1a-Luc implants were subjected to bioluminescent analysis based on the luciferase signal. Briefly, mice received D-luciferin phosphate solution (100 mg/kg) intravenously 10 min prior to imaging. They were then anesthetized with isoflurane inhalation and imaged using a Xenogen IVIS scanner (PerkinElmer, Waltham, MA, USA). The next day, mice showing successful implantations were randomly divided into the control, DMAPE low dose, DMAPE high dose, and Ara-C treatment groups (n = 5 in each group), which received daily i. g. saline buffer, DMAPE phosphate salt 25 mg/kg, DMAPE phosphate salt 50 mg/kg and Ara-C (50 mg/kg), respectively. The growth of KG-1a-Luc cells was monitored every week by their luciferase signal. Five weeks after the implantation, all mice were sacrificed and their livers, kidneys, and bone marrow were excised for ex vivo bioluminescent imaging. The bioluminescent signal intensity was all quantified using the Living Image software (version 4.2, Carliper Life Science, Inc., Hopkinton, MA, USA) and is presented as photons/second/cm^2/sr (sr denotes steradian).

As a reminder, the IC50 is the concentration that inhibits the measured activity by half. One may read the Kd as the equilibrium constant for the complex coming apart. Lower therefore signals tighter binding.

For `CC(C)=CC[C@@H](O)C1=CC(=O)c2c(O)ccc(O)c2C1=O` [shikonin], the half-maximal inhibitory concentration (IC50) with TrxR1 was ~1.6 µM.
Take `O=[N+]([O-])c1ccc(Cl)c([N+](=O)[O-])c1` [DNCB, 1-chloro-2,4-dinitrobenzene, reference compound]: the “BIAM alkylation of Sec residue of TrxR1” value on Sec residue in TrxR1 is “significantly block”.
Take `C=C1C(=O)O[C@H]2[C@H]1CC/C(C)=C/CC[C@@]1(C)O[C@@H]21` [parthenolide, Parthenolide]: in the data set with TrxR1, the IC50 is ~3 µM.
In turn, `COc1cc(C(c2cc(OC)c3c(c2)OCO3)[C@@H]2COC(=O)[C@H]2C)cc2c1OCO2` [PepA, Peperomin A, reference compound] had a Kd at NADPH-reduced TrxR1 of 111 µM.
With `Nc1ccn([C@@H]2O[C@H](CO)[C@@H](O)[C@@H]2O)c(=O)n1` [Ara-C, Cytarabine, reference compound], the “toxicity against AML progenitor cells” value in the data set with primary CD34+ AML cells is on record as “no apparent toxicity”. Also, the “toxicity on NBM and hBMSC cells in side-by-side comparison” value in data set [1] is “more toxic than PepE and DMAPE”. Further, the “in vivo efficacy against KG-1a CD34+ cells” value in the data set with KG-1a CD34+ cells is “not obvious; also recorded: not significant”.
